The values that follow come from the supplement of paper PMC10307832.

Common to all, as to experiment: relative viability (nuclei count vs DMSO), 5 days (fraction); higher = more cells survive
Compound in assay [1]: Cc1ccc(C(=O)Nc2cccc(C(F)(F)F)c2)cc1Nc1cncc(C(N)=O)c1 [ALW-II-49-7] + C[C@]1(O)C[C@@H](c2nc(-c3ccc4ccc(-c5ccccc5)nc4c3)c3c(N)nccn32)C1 [Linsitinib] (partner 1 µM)
A digest of the protocol:
(§1)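 Nuclei were stained with Hoechst during a one-step fixation (final 0.05% Triton X-100, 1% formaldehyde, 1 ug/ml Hoechst) carried out 5 days after dosing, then counted on 4× images. The cells, lung cancer lines in 1536-well plates, had been dosed by pin tool the day after seeding with one drug alone or a fixed anchor-drug dose plus five library-drug doses (not always all listed) in √10 steps. Relative viability is the nuclei count in treated wells divided by that in vehicle wells, and each value is the median of duplicate plates.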

Compound in assay [2]: Cc1ccc(C(=O)Nc2cccc(C(F)(F)F)c2)cc1Nc1cncc(C(N)=O)c1 [ALW-II-49-7] + CS(=O)(=O)CCNCc1ccc(-c2ccc3ncnc(Nc4ccc(OCc5cccc(F)c5)c(Cl)c4)c3c2)o1 [Lapatinib] (partner 2 µM)
A digest of the protocol: as §1

Compound in assay [3]: Cc1nc(Nc2ncc(C(=O)Nc3c(C)cccc3Cl)s2)cc(N2CCN(CCO)CC2)n1 [Dasatinib] + CS(=O)(=O)CCNCc1ccc(-c2ccc3ncnc(Nc4ccc(OCc5cccc(F)c5)c(Cl)c4)c3c2)o1 [Lapatinib] (partner 2 µM)
The method in brief:
as §1

Compound in assay [4]: C1CC1C(=O)NC2=NNC3=C2C=CC(=C3)C4=CC(=CC=C4)C(=O)NC5CC5 [XMD13-2] + CS(=O)(=O)N1CCN(Cc2cc3nc(-c4cccc5[nH]ncc45)nc(N4CCOCC4)c3s2)CC1 [Pictilisib] (partner 1 µM)
A digest of the protocol:
as §1

Regarding UMC-11, the relative viability worked out at 0.989 in assay [1] (first compound 0.08 µM); 0.902 in assay [1] (first compound 0.253 µM); 1.12 in assay [1] (first compound 2.53 µM); 1.04 in assay [1] (first compound 8 µM); 0.943 in assay [2] (first compound 0.08 µM); 1.08 in assay [2] (first compound 0.253 µM). The relative viability is 0.998 in assay [2] (first compound 0.8 µM); 1.04 in assay [2] (first compound 2.53 µM); 0.806 in assay [2] (first compound 8 µM); 0.877 in assay [3] (first compound 0.005 µM); 0.702 in assay [3] (first compound 0.01581 µM); 0.835 in assay [3] (first compound 0.05 µM). Moreover, the relative viability in assay [3] (first compound 0.1581 µM) is 0.333; in assay [3] (first compound 0.5 µM) it was 0.377; in assay [4] (first compound 0.05 µM), 0.943; in assay [4] (first compound 0.1581 µM) it was 0.8; in assay [4] (first compound 0.5 µM) it was 0.704; in assay [4] (first compound 1.581 µM), 0.803. Further, the relative viability in assay [4] (first compound 5 µM) is 0.71.
